Calls of active or inactive are those of the source.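 The calls were made as follows: active = versus DMSO control, mean enzyme activity at or below 80% or at or above 120%; inactive = between 80% and 120% mean enzyme activity.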
Key:
Test in all cases: kinase activity changes across 48 kinases – biochemical, 33P-ATP radiometric, Reaction Biology, powder sample, selectivity assay for KLF5 inhibitor project, late-stage follow-up (AID 588725)
PKCb1 = settings: 48-kinase panel, 33P-ATP radiometric activity, at 10 µM
CDK5/p25 = settings: 48-kinase panel, 33P-ATP radiometric activity, at 10 µM
JAK1 = settings: 48-kinase panel, 33P-ATP radiometric activity, at 10 µM
MEK2 = settings: 48-kinase panel, 33P-ATP radiometric activity, at 10 µM
[1] = target: Protein kinase C zeta type (Homo sapiens) (UniProt Q05513); settings: 48-kinase panel, 33P-ATP radiometric activity, PKCzeta, at 10 µM
[2] = target: Ribosomal protein S6 kinase beta-1 (Homo sapiens) (UniProt P23443); settings: 48-kinase panel, 33P-ATP radiometric activity, p70S6K, at 10 µM
Chain of Ribosomal protein S6 kinase beta-1 (Homo sapiens) (P23443 whole entry, looked up): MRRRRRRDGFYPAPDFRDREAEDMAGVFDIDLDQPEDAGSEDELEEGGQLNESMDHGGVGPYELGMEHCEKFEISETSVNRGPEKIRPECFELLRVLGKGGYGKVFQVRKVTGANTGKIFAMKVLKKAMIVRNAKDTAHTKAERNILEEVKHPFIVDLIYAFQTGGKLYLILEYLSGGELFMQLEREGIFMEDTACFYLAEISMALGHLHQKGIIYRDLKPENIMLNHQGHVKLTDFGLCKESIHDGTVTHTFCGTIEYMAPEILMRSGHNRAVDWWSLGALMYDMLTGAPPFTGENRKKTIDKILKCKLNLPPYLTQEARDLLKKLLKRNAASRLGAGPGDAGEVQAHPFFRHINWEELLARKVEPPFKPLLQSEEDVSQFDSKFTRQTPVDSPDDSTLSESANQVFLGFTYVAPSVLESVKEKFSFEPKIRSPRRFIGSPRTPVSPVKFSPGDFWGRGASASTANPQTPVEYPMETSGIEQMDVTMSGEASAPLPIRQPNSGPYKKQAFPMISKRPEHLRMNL

[3] = target: Inhibitor of nuclear factor kappa-B kinase subunit beta (Homo sapiens) (UniProt O14920); settings: 48-kinase panel, 33P-ATP radiometric activity, IKKb, at 10 µM
P38d = settings: 48-kinase panel, 33P-ATP radiometric activity, at 10 µM
[4] = target: Protein kinase C gamma type (Homo sapiens) (UniProt P05129); settings: 48-kinase panel, 33P-ATP radiometric activity, PKCg, at 10 µM
Aurora A = settings: 48-kinase panel, 33P-ATP radiometric activity, at 10 µM
[5] = target: Glycogen synthase kinase-3 beta (Homo sapiens) (UniProt P49841); settings: 48-kinase panel, 33P-ATP radiometric activity, GSK3b, at 10 µM
[6] = target: Receptor tyrosine-protein kinase erbB-2 (Homo sapiens) (UniProt P04626); settings: 48-kinase panel, 33P-ATP radiometric activity, ERBB2, at 10 µM
[7] = target: Inhibitor of nuclear factor kappa-B kinase subunit alpha (Homo sapiens) (UniProt O15111); settings: 48-kinase panel, 33P-ATP radiometric activity, IKKa, at 10 µM
Chain of Inhibitor of nuclear factor kappa-B kinase subunit alpha (Homo sapiens) (O15111 whole entry, looked up): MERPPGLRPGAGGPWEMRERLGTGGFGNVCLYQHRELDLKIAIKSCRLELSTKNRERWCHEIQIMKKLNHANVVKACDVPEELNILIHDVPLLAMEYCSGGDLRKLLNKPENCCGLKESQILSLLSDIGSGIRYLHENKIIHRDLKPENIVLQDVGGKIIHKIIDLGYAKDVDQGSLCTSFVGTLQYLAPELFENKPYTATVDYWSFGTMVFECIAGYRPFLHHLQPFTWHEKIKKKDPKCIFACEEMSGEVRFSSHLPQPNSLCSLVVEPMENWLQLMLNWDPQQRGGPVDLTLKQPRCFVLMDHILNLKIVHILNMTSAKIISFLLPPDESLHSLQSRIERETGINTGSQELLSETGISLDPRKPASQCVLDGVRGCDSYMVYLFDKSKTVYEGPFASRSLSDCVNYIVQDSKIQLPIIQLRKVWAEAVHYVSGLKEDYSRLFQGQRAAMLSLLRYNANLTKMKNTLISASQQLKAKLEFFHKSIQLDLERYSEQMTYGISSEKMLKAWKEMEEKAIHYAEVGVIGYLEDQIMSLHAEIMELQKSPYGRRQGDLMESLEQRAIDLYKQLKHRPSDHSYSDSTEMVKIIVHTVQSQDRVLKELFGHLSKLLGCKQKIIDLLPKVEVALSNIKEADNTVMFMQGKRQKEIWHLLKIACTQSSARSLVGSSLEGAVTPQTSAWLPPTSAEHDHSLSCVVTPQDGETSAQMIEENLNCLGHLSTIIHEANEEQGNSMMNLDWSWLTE

P38b = settings: 48-kinase panel, 33P-ATP radiometric activity, at 10 µM
PKCeta = settings: 48-kinase panel, 33P-ATP radiometric activity, at 10 µM
[8] = target: Receptor tyrosine-protein kinase erbB-4 (Homo sapiens) (UniProt Q15303); settings: 48-kinase panel, 33P-ATP radiometric activity, ERBB4, at 10 µM
PKCb2 = settings: 48-kinase panel, 33P-ATP radiometric activity, at 10 µM
[9] = target: Glycogen synthase kinase-3 alpha (Homo sapiens) (UniProt P49840); settings: 48-kinase panel, 33P-ATP radiometric activity, GSK3a, at 10 µM
Chain of Glycogen synthase kinase-3 alpha (Homo sapiens) (P49840 whole entry, looked up): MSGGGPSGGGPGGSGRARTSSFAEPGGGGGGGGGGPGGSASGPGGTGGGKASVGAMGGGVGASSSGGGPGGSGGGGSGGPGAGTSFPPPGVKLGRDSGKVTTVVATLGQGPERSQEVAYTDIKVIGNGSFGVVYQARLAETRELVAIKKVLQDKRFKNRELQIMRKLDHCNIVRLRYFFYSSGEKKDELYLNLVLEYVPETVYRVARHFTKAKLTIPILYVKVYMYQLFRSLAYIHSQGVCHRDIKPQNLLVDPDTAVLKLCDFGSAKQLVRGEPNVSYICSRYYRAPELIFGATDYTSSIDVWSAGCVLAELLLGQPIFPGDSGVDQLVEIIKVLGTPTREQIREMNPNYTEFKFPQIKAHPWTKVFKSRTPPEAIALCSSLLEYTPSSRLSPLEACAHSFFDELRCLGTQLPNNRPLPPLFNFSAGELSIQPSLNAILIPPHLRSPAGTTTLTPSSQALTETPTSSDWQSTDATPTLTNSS

[10] = target: Protein kinase C delta type (Homo sapiens) (UniProt Q05655); settings: 48-kinase panel, 33P-ATP radiometric activity, PKCd, at 10 µM
PKCa = settings: 48-kinase panel, 33P-ATP radiometric activity, at 10 µM
[11] = target: Mitogen-activated protein kinase 3 (Homo sapiens) (UniProt P27361); settings: 48-kinase panel, 33P-ATP radiometric activity, ERK1, at 10 µM
Chain of Mitogen-activated protein kinase 3 (Homo sapiens) (P27361 whole entry, looked up): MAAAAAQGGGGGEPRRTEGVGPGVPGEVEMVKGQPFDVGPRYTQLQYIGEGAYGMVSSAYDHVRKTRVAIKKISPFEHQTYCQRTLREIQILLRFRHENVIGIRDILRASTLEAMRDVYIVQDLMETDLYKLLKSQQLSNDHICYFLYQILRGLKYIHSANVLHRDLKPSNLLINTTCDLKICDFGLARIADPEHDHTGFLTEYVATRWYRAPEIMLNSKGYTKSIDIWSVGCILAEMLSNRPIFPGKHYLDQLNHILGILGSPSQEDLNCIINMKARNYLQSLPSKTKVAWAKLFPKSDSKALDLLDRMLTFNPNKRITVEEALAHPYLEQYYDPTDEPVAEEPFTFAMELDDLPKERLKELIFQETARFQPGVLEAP

MKK6 = settings: 48-kinase panel, 33P-ATP radiometric activity, at 10 µM
[12] = target: Mitogen-activated protein kinase 12 (Homo sapiens) (UniProt P53778); settings: 48-kinase panel, 33P-ATP radiometric activity, P38g, at 10 µM
[13] = target: Serine/threonine-protein kinase D3 (Homo sapiens) (UniProt O94806); settings: 48-kinase panel, 33P-ATP radiometric activity, PKCnu, at 10 µM
Chain of Serine/threonine-protein kinase D3 (Homo sapiens) (O94806 whole entry, looked up): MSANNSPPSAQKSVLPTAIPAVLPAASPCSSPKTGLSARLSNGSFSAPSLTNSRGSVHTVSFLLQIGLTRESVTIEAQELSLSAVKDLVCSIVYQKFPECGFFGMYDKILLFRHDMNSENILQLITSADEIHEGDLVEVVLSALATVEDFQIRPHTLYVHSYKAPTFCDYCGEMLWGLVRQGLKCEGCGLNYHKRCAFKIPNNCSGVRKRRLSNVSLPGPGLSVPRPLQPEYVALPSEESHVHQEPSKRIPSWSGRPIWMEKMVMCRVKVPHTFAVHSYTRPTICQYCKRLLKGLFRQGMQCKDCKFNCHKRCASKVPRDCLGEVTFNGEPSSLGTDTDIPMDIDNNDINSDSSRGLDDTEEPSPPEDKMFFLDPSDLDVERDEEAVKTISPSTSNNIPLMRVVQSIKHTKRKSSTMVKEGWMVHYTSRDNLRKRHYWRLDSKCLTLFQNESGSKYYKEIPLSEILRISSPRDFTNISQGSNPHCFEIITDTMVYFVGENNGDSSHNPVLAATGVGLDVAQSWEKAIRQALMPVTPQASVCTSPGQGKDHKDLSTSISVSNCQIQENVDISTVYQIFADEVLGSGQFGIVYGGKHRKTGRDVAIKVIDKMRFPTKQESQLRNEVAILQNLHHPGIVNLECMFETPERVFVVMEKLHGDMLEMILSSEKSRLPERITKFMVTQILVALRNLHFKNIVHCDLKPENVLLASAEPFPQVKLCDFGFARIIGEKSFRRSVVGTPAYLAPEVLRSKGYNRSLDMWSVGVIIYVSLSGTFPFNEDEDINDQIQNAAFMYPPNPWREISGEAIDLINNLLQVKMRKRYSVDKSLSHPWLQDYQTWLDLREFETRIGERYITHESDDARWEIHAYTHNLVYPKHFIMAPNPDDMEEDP

[14] = target: Dual specificity mitogen-activated protein kinase kinase 1 (Homo sapiens) (UniProt Q02750); settings: 48-kinase panel, 33P-ATP radiometric activity, MEK1, at 10 µM
[15] = target: Epidermal growth factor receptor (Homo sapiens) (UniProt P00533); settings: 48-kinase panel, 33P-ATP radiometric activity, EGFR, at 10 µM
Chain of Epidermal growth factor receptor (Homo sapiens) (P00533 whole entry, looked up): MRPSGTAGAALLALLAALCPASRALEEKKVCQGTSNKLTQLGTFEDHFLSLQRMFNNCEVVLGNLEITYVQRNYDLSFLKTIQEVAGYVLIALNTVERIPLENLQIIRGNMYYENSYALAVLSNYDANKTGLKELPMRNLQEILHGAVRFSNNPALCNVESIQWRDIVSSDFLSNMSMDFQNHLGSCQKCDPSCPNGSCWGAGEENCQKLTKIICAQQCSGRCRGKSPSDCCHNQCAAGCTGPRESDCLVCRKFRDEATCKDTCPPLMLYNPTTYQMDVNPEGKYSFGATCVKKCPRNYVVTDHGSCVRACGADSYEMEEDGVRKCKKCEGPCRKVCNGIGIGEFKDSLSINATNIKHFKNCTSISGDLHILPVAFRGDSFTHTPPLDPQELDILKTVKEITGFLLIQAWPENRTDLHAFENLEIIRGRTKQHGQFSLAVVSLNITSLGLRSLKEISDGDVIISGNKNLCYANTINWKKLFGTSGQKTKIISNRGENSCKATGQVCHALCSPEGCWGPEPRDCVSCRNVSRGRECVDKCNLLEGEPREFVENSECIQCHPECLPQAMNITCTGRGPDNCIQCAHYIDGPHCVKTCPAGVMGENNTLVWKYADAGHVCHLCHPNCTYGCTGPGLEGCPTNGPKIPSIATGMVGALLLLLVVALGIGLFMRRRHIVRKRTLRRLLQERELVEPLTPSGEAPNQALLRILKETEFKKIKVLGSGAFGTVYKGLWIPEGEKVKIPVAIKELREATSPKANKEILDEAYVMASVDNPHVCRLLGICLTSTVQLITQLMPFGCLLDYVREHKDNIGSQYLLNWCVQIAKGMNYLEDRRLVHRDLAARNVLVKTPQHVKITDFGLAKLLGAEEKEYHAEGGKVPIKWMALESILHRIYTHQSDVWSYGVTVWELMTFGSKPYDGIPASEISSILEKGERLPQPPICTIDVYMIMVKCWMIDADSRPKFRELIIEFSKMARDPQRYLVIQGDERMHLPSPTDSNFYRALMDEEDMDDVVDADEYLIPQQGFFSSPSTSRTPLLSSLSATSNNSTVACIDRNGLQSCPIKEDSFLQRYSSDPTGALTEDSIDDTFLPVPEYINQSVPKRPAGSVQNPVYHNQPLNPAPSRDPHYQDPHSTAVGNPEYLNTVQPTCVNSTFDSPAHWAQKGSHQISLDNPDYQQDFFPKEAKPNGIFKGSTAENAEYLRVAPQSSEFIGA

MEKK3 = settings: 48-kinase panel, 33P-ATP radiometric activity, at 10 µM
PKCepsilon = settings: 48-kinase panel, 33P-ATP radiometric activity, at 10 µM
[16] = target: RAC-gamma serine/threonine-protein kinase (Homo sapiens) (UniProt Q9Y243); settings: 48-kinase panel, 33P-ATP radiometric activity, AKT3, at 10 µM
CDK5/p35 = settings: 48-kinase panel, 33P-ATP radiometric activity, at 10 µM
[17] = target: Mitogen-activated protein kinase 9 (Homo sapiens) (UniProt P45984); settings: 48-kinase panel, 33P-ATP radiometric activity, JNK2, at 10 µM
MLK3 = settings: 48-kinase panel, 33P-ATP radiometric activity, at 10 µM
[18] = target: Protein kinase C iota type (Homo sapiens) (UniProt P41743); settings: 48-kinase panel, 33P-ATP radiometric activity, PKCiota, at 10 µM
[19] = target: Protein kinase C theta type (Homo sapiens) (UniProt Q04759); settings: 48-kinase panel, 33P-ATP radiometric activity, PKCtheta, at 10 µM
[20] = target: Serine/threonine-protein kinase B-raf (Homo sapiens) (UniProt P15056); settings: 48-kinase panel, 33P-ATP radiometric activity, BRAF, at 10 µM
JNK1 = settings: 48-kinase panel, 33P-ATP radiometric activity, at 10 µM
[21] = target: RAC-beta serine/threonine-protein kinase (Homo sapiens) (UniProt P31751); settings: 48-kinase panel, 33P-ATP radiometric activity, AKT2, at 10 µM
p70S6Kb = settings: 48-kinase panel, 33P-ATP radiometric activity, at 10 µM
[22] = target: Cyclin-dependent kinase 1 (Homo sapiens) (UniProt P06493); settings: 48-kinase panel, 33P-ATP radiometric activity, at 10 µM
Chain of Cyclin-dependent kinase 1 (Homo sapiens) (P06493 whole entry, looked up): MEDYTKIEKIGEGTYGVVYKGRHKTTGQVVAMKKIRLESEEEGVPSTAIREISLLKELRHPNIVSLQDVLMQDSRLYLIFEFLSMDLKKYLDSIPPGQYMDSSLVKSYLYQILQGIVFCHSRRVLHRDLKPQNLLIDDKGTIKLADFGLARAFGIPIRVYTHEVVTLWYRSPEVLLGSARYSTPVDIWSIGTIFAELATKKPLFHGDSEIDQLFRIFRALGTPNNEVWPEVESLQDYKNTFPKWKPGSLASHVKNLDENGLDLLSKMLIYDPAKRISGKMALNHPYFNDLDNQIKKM

[23] = target: Serine/threonine-protein kinase D1 (Homo sapiens) (UniProt Q15139); settings: 48-kinase panel, 33P-ATP radiometric activity, PKCmu, at 10 µM
[24] = target: Mitogen-activated protein kinase 14 (Homo sapiens) (UniProt Q16539); settings: 48-kinase panel, 33P-ATP radiometric activity, P38a, at 10 µM
[25] = target: Cyclin-dependent kinase 2 (Homo sapiens) (UniProt P24941); settings: 48-kinase panel, 33P-ATP radiometric activity, at 10 µM
[26] = target: Mitogen-activated protein kinase 10 (Homo sapiens) (UniProt P53779); settings: 48-kinase panel, 33P-ATP radiometric activity, JNK3, at 10 µM
[27] = target: RAC-alpha serine/threonine-protein kinase (Homo sapiens) (UniProt P31749); settings: 48-kinase panel, 33P-ATP radiometric activity, AKT1, at 10 µM
Chain of RAC-alpha serine/threonine-protein kinase (Homo sapiens) (P31749 whole entry, looked up): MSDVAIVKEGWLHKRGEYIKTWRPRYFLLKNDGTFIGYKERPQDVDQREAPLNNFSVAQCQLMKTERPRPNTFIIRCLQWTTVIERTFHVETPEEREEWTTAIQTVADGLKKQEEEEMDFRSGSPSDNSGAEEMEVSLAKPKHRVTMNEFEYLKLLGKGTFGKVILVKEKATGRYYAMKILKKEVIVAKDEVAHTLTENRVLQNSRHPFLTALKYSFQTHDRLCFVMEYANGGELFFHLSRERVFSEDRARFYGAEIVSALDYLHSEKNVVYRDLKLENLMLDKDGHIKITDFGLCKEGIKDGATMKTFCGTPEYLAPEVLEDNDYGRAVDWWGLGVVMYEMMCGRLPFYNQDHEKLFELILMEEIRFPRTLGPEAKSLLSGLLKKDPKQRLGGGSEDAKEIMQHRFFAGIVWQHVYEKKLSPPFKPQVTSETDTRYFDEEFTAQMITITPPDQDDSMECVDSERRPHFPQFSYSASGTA

[28] = target: Mitogen-activated protein kinase 1 (Homo sapiens) (UniProt P28482); settings: 48-kinase panel, 33P-ATP radiometric activity, ERK2, at 10 µM
MEKK2 = settings: 48-kinase panel, 33P-ATP radiometric activity, at 10 µM

Measured: enzyme activity

CN(C(=O)CNC(=O)/C=C/c1cccc(Cl)c1)C1CCS(=O)(=O)CC1
inactive: PKCb1 98.5% | CDK5/p25 108% | JAK1 91.3% | MEK2 105% | [1] 102% | [2] 104% | [3] 107% | P38d 98.3% | [4] 100% | Aurora A 95.4% | [5] 112% | [6] 104% | [7] 97.3% | P38b 95.7% | PKCeta 107% | [8] 97% | PKCb2 102% | [9] 104% | [10] 104% | PKCa 99.6% | [11] 103% | MKK6 103% | [12] 105% | [13] 105% | [14] 108% | [15] 98% | MEKK3 99.6% | PKCepsilon 100% | [16] 98.7% | CDK5/p35 106% | [17] 108% | MLK3 101% | [18] 103% | [19] 98.8% | [20] 100% | JNK1 101% | [21] 107% | p70S6Kb 100% | [22]; CDK1/cyclin A 106% | [22]; CDK1/cyclin B 103% | [23] 106% | [24] 96.3% | [25]; CDK2/cyclin A 95.5% | [25]; CDK2/cyclin E 113% | [26] 102% | [27] 104% | [28] 101% | MEKK2 102%

From PubChem BioAssay AID588725 (The Scripps Research Institute Molecular Screening Center, 2011)
